Data reported in PubChem BioAssay AID977621 (Broad Institute, 2014).
Results filed as inconclusive are left out. Active and inactive are the calls of the source.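 How the source made its calls: active means Wild-type ribosome reporter drop at least double the humanized mutant ribosome reporter drop, growth loss under a set limit; inconclusive means no clear call, values can overlap the other calls; inactive means the rest.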

Tested on: E. coli wild-type GFP strain growth, fluorescence, 24 h
Assay: wild-type E. coli growth inhibition versus H69 humanized strain – H69 mutant RFP, wild-type GFP, cherry-pick, dose response (AID 977621);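 further: wild-type GFP and H69 mutant RFP strains grown together 50/50 in each well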
[1] = E. coli mixed culture, 24 h, measured here: total growth OD600, test 2

SMILES | AC50 [1] | AC50 | AC50 (measured here: total growth OD600, test 2)
O=S(=O)(c1ccccc1)N1CC[C@@H]2[C@H](CO)Nc3ccc(Br)cc3[C@@H]21 | 43.4 µM | – | –
CC(C)CN1C(=O)c2ccc(C(=O)Nc3ccncc3)cc2C1=O | > 100 µM | > 100 µM (inactive) | –
O=C(Nc1cccc(Cl)c1)N1C[C@H]2[C@@H](c3ccccc31)[C@@H](CO)N2C(=O)c1ccncc1 | – | > 100 µM (inactive) | –
CC1=CC(C)(C)N(C(=O)CSc2nnc(C)s2)c2ccc(C)cc21 | > 100 µM | – | –
N#Cc1ccc(-c2ccc(C3[C@H]4CNC[C@@H]3N4S(=O)(=O)c3ccc(-c4ccccc4)cc3)cc2)cc1 (some centres not stated) | > 100 µM | – | –
Cc1ccc(-n2nnnc2-c2ccccc2Br)cc1 | 46 µM | > 100 µM (inactive) | –
O=C(CCc1ccccc1)Nc1sc2c(c1C(=O)O)CCCC2 | – | > 100 µM (inactive) | –
COC(=O)c1sc(-c2ccc(C(C)(C)C)cc2)cc1NC(=O)c1ccccc1C(=O)O | > 100 µM | – | –
CC(C)Cc1nnc(NS(=O)(=O)c2ccccc2)s1 | – | > 100 µM (inactive) | –
COc1ccc(C(=O)COC(=O)c2ccccc2O)c(OC)c1 | – | > 100 µM (inactive) | –
O=C1c2ccccc2NC(c2cccc(F)c2)N1Cc1ccco1 (configuration not stated) | 9.09 µM | – | –
C=CCn1c(SCc2n[nH]c(=S)n2-c2ccccc2)nnc1-c1ccccc1 | – | > 100 µM (inactive) | –
c1ccc(CN2CCN(C3CCCSc4ccccc43)CC2)cc1 (configuration not stated) | 49.8 µM | > 100 µM (inactive) | –
O=C(CSCc1c(Cl)cccc1Cl)NCc1ccccn1 | > 100 µM | – | –
Cc1ccc(NC(=O)c2ccc(CSc3ccccn3)cc2)c(O)c1 | 20.9 µM | > 100 µM (inactive) | –
COC(=O)c1cc2ccccc2n1S(=O)(=O)c1ccccc1 | > 100 µM | – | –
COc1ccc(CC(=O)NC(C)c2ccc3ccccc3c2)cc1 (configuration not stated) | – | > 100 µM (inactive) | –
O=C(NCCc1ccccc1)c1ccc2c(c1)S(=O)(=O)c1ccccc1C2=O | 41.5 µM | > 100 µM (inactive) | –
COc1ccc(CNC(=O)CSCc2c(F)cccc2Cl)cc1 | > 100 µM | – | –
COc1ccc(OC)c(NC(=O)c2c3c(nc4ccccc24)CCC3)c1 | – | > 100 µM (inactive) | –
C=CCn1c(CCSCc2ccc(OC)c(C)c2)n[nH]c1=S | 33.6 µM | > 100 µM (inactive) | –
Cc1ccc(-c2nc(CN3CCCCC3c3cccc(F)c3)c(C)o2)o1 (configuration not stated) | > 100 µM | – | –
CC(=O)c1cccc(NC(=O)COC(=O)C2CCCN2C(=O)c2cccs2)c1 (configuration not stated) | – | > 100 µM (inactive) | –

SMILES | AC50 [1] | AC50 | AC50 (measured here: total growth OD600, test 2)
O=C(COC(=O)C12CC3CC(CC(O)(C3)C1)C2)NCCc1ccc(Cl)cc1 | – | > 100 µM (inactive) | –
O=C(CN(CCO)c1ccccc1)Nc1cccc(S(=O)(=O)N2CCCC2)c1 | – | > 100 µM (inactive) | –
COc1ccc(NC(=O)Nc2cccc3c2O[C@H](CN(C)S(=O)(=O)c2ccc(Cl)cc2)[C@H](C)CN([C@@H](C)CO)C3=O)cc1 | 6.44 µM | > 100 µM (inactive) | –
O=C(Cc1ccc(NC(=O)C2CCCN(C(=O)CCc3ccccc3)C2)cc1)Nc1cccc(C(=O)N2CCCC2)c1 (configuration not stated) | > 100 µM | > 100 µM (inactive) | –
Nc1c(C(=O)NCCN2CCOCC2)c2nc3ccccc3nc2n1Cc1ccccc1 | – | > 100 µM (inactive) | > 100 µM
Cc1ccc2oc(C(=O)N(CCO)Cc3ccccc3)c(C)c2c1 | 32.4 µM | > 100 µM (inactive) | –
COc1ccc(N(CCC(=O)O)S(=O)(=O)c2ccc(C)cc2C)cc1 | > 100 µM | – | –
COc1cc(-c2ccc(N3C(c4ccsc4)=Cc4ccc(F)cc4C3c3c[nH]c4ccc(C#N)cc34)cc2)cc(OC)c1OC (configuration not stated) | > 100 µM | – | –
CCCC#C/C(CCC)=C1\c2ccccc2C(=O)N1c1ccccc1 | > 100 µM | – | –
COc1ccccc1-c1ccc(SCc2cccc(F)c2)nn1 | 20.3 µM | > 100 µM (inactive) | –
C[n+]1ccccc1/C=C/c1cc(Br)ccc1O | – | > 100 µM (inactive) | –
O=S1(=O)N[C@@H](Cc2ccccc2)COc2cc(N3CCC[C@H]3CO)ccc21 | – | > 100 µM (inactive) | –
O=C1c2ccccc2S(=O)(=O)c2cc(N3CCC(C(=O)N4CCCCC4)CC3)ccc21 | – | > 100 µM (inactive) | –
CCOC(=O)c1c(C)nsc1NCc1ccccc1 | > 100 µM | – | –
Cc1ccc(NC(=O)c2ccc([N+](=O)[O-])o2)c(C)c1 | – | > 100 µM (inactive) | –
CCCC(=O)N(CCc1ccc(OC)cc1)Cc1nc2ccccc2c(=O)[nH]1 | – | > 100 µM (inactive) | –
Cc1cnc(NC(=O)Cc2c[nH]c3ccccc23)s1 | – | > 100 µM (inactive) | –
N#Cc1ccsc1NC(=O)CSc1nnnn1-c1ccc(O)cc1 | – | > 100 µM (inactive) | –
Cc1ccc(S(=O)(=O)NCc2c(-c3ccccc3)noc2C)cc1 | > 100 µM | – | –
O=C(C[C@H]1CC[C@H]2[C@@H](COC[C@@H](O)CN2C(=O)Nc2ccc(Cl)cc2)O1)N1CCCCC1 | – | > 100 µM (inactive) | –
COc1ccccc1NC(=O)Cn1cc(C(=O)c2ccco2)c2ccccc21 | 31.3 µM | > 100 µM (inactive) | –
CCc1ccc(C(=O)Nc2cccnc2Oc2ccc(Cl)cc2)cc1 | > 100 µM | – | –
CCn1ncc(Br)c1C(=O)Nc1ccc2c(c1)OCCO2 | – | > 100 µM (inactive) | –

SMILES | AC50 [1] | AC50 | AC50 (measured here: total growth OD600, test 2)
Cc1[nH]nc2c1C(c1ccc(F)cc1)N(Cc1ccccc1)C2=O (configuration not stated) | – | > 100 µM (inactive) | –
COC(=O)c1ccc(CN2CCCC(CO)(Cc3ccccc3F)C2)cc1 (configuration not stated) | – | > 100 µM (inactive) | –
COc1cc(SC)ccc1C(=O)N1CCN(c2ccccc2F)CC1 | – | > 100 µM (inactive) | –
Nc1ccc2nc(-c3ccc(Cl)cc3)[nH]c2c1 | – | > 100 µM (inactive) | –
Cc1cc(C)nc(SCc2cn3c(C)cccc3n2)n1 | – | > 100 µM (inactive) | –
CCN(c1cccc2ccccc12)S(=O)(=O)c1ccc(Cl)nc1 | – | > 100 µM (inactive) | –
COc1cc(C(=O)Nc2nnc(S(=O)(=O)N3CCCCCC3)s2)cc(OC)c1OC | 36.3 µM | > 100 µM (inactive) | –
O=C(C[C@H]1CC[C@@H]2[C@H](COC[C@@H](O)CN2C(=O)Nc2cc(Cl)cc(Cl)c2)O1)N1CCOCC1 | – | > 100 µM (inactive) | –
COc1ccc(OC)c(CN2CCCC(C(=O)c3ccccc3SC)C2)c1 (configuration not stated) | – | > 100 µM (inactive) | –
COc1cc2cc(C(=O)Nc3ccc4c(c3)OCCO4)[nH]c2cc1OC | > 100 µM | – | –
O=C(Cc1ccc(Br)cc1)Nc1cccc(-c2cn3c(n2)SCC3)c1 | > 100 µM | – | –
CCOC(=O)Cc1nnc(NC(=O)CSc2nc3ccccc3[nH]2)s1 | – | > 100 µM (inactive) | –
COc1ccc(NS(=O)(=O)c2ccc(Cl)c(NC(=O)c3ccccc3F)c2)cc1 | – | > 100 µM (inactive) | –
CCOc1ccc2[nH]c3c(NCCN(C)C)ncnc3c2c1 | > 100 µM | – | –
NS(=O)(=O)c1cccc(NC(=O)CSc2nc3ccccc3n2-c2ccccc2)c1 | 40.3 µM | > 100 µM (inactive) | –
C=C1SC(Nc2c(C)cc(C)cc2C)=NC12CCCCC2 | 31.9 µM | > 100 µM (inactive) | –
O=C1OCCC1Sc1nc2ccccc2c(=O)n1Cc1ccccc1 (configuration not stated) | – | > 100 µM (inactive) | –
C[C@@H]1CCCCO[C@H](CN(C)C)[C@H](C)CN([C@H](C)CO)C(=O)c2cc(NC(=O)Nc3cccc4ccccc34)ccc2O1 | > 100 µM | – | –
CCOC(=O)c1nc(C)sc1-c1ccnn1S(=O)(=O)c1cccc(Cl)c1 | 45.7 µM | > 100 µM (inactive) | –
COc1ccc(CCCc2nc3ccccc3[nH]2)cc1 | > 100 µM | – | –
COc1cc2nc(Nc3ccc(F)cc3)nc(N)c2cc1OC | – | > 100 µM (inactive) | –
Cc1ccc(NC(=O)c2ccc(Br)o2)cc1S(=O)(=O)N(C)C | > 100 µM | > 100 µM (inactive) | –
Nc1nn(-c2ccccc2)c2ccc([N+](=O)[O-])cc12 | – | > 100 µM (inactive) | –

SMILES | AC50 [1] | AC50 | AC50 (measured here: total growth OD600, test 2)
Cc1noc(C)c1NC(=O)Nc1ccc2c(c1)C(=O)N([C@H](C)CO)C[C@H](C)[C@H](CN(C)C(=O)Nc1ccc3c(c1)OCO3)OCCCC[C@@H](C)O2 | > 100 µM | – | –
COc1ccc(OC)c(NC(=O)COc2ccc(S(=O)(=O)NC(C)C)cc2)c1 | > 100 µM | – | –
COc1cc(CO)cc(Br)c1OCC(=O)Nc1cccc2ccccc12 | – | > 100 µM (inactive) | –
COc1ccc(CNc2ncnc3cc(OC)c(OC)cc23)cc1OC | – | > 100 µM (inactive) | –
Cc1nn(CC(=O)OCCOc2ccc(Br)cc2)c(C)c1[N+](=O)[O-] | > 100 µM | – | –
CS(=O)(=O)NCCSc1cc(C(F)(F)F)nc2ccccc12 | 30.4 µM | > 100 µM (inactive) | –
CC(C)CN(C(=O)c1cc([N+](=O)[O-])cc([N+](=O)[O-])c1)C1CCS(=O)(=O)C1 (configuration not stated) | > 100 µM | – | –
CCOCCCNC(=O)C(NC(=O)c1ccccc1O)c1ccc(C)cc1 (configuration not stated) | > 100 µM | – | –
O=C1c2ccccc2C(c2nnnn2Cc2ccccc2)N1Cc1cccc(F)c1 (configuration not stated) | > 100 µM | – | –
CCCN(CC(=O)Nc1ccccc1C)C(=O)c1cccc(S(=O)(=O)N2CCc3ccccc3C2)c1 | 40.8 µM | > 100 µM (inactive) | –
COC(=O)c1ccccc1OCCOCCOc1cccc2ccc(C)nc12 | – | > 100 µM (inactive) | –
CN(C)S(=O)(=O)N1CCN(c2ccccc2Cl)CC1 | > 100 µM | – | –
CC1CCCN(c2ccc(C(=O)NCCc3ccccc3)cn2)C1 (configuration not stated) | > 100 µM | – | –
Cc1cccc(OCCC(=O)N(C)CC(=O)Nc2cccc3ccccc23)c1 | – | > 100 µM (inactive) | –
CC(=O)Nc1ccc(OCC(=O)N2CCC(Cc3ccccc3)CC2)cc1 | > 100 µM | – | –
CO[C@@H]1CN(C)C(=O)c2cc(NC(=O)C3CCCC3)ccc2OC[C@@H](C)N(C(=O)Nc2ccc(C(F)(F)F)cc2)C[C@H]1C | – | > 100 µM (inactive) | –
C[C@@H](NC(=O)C[C@@H]1CC[C@@H]2[C@H](COC[C@H](O)CN2C(=O)Nc2cccc(F)c2)O1)c1ccccc1 | – | > 100 µM (inactive) | –
O=C(c1cnc(Cc2c[nH]c3ccccc23)c(I)c1)N1CCCCC1 | 29.6 µM | – | –
O=C(CSc1ccc(-c2cccnc2)nn1)N1CCCc2ccccc21 | > 100 µM | > 100 µM (inactive) | –
Cc1noc(C)c1NC(=O)Nc1ccc2c(c1)C(=O)N([C@H](C)CO)C[C@H](C)[C@H](CN(C)C(=O)Nc1ccc3c(c1)OCO3)OCCCC[C@H](C)O2 | > 100 µM | – | –
Cc1cc(C(=O)OCC(=O)Nc2cccc(S(N)(=O)=O)c2)c2ccccc2n1 | > 100 µM | – | –
O=C(Nc1cc(S(=O)(=O)N2CCCCC2)ccc1N1CCCCC1)C1CC1 | > 100 µM | – | –
COc1ccccc1Cn1c(=S)[nH]c2ccc(F)cc2c1=O | – | > 100 µM (inactive) | –
